Patent EP4299131A1, “HYDROPHILIC PHENALENONES AND THEIR USE IN ANTIMICROBIAL PHOTODYNAMIC THERAPY” (Centre national de la recherche scientifique, priority 2022, dated 2024)
Read-outs that look alike come from different tables or passages of the source.

How the values were obtained:
[1] = system: Staphylococcus aureus CIP76.25; test: Antibacterial photodynamic inactivation, MIC/MBC by micromethod in 96-well plates; format: cell-based
Method: (§1) To evaluate the biological activity of the molecules, the minimal inhibitory concentration (MIC) and the minimal bactericidal concentration (MBC) were determined on bacterial cultures (Staphylococcus aureus CIP76.25, Pseudomonas aeruginosa CIP76.110) by micromethod in 96-well plates. Briefly, bacterial cultures in log-phase were diluted in sterile PBS 1X at a concentration equivalent to 4×10^6 UFC/mL. Serial dilutions of different molecules were performed in PBS 1X to a final concentration from 200 to 1.5 µM and 50 µl of each dilution were added in the microplate wells. Then, 50 µl of diluted bacterial culture were added in each well. Two different plates for each strain were prepared: one plate for the dark condition and a second plate for light irradiation.
(§2) Two controls were included; a bacterial growth control with no molecule added and a negative control with PBS without bacterial inoculum and no molecules.
(§3) The microplate was incubated at 37°C for 1h in dark condition. After that, bacteria were irradiated with LED white light (total fluence: 25J/cm^2). During the time of irradiation, the second plate was maintained in the dark. Then, 100 µL of 2-fold concentrated TS broth were added in each well and the microplate was incubated at 37°C for 24h. The MIC values were determined as the lowest concentration without observed bacterial growth. For determination of the MBC, 100 µl from wells where no evident growth was observed were diluted in physiological water (NaCl 0.9%). All 10-fold serial dilutions were spread on TS agar plates using an automatic plater (easySPIRAL®, Interscience, Saint-Nom La Bretêche, France). After incubation at 37 °C for 24 h, colonies were counted to determine total CFU per mL (CFU/mL). The MBC corresponds to the concentration of the active compound for which 99.99% of the bacteria have been killed (i.e. 4 log reduction compared to the untreated control). Three independent experiments were performed with each strain.

[2] = system: Pseudomonas aeruginosa CIP76.110; test: as above; format: cell-based; details: for MBC / MIC: Pseudomonas aeruginosa
Method: as §1, §2, §3

[3] = Singlet oxygen quantum yield by chemical trapping with ADPA; format: physicochemical; details: D2O (470 nm); ADPA as chemical probe, Eosin Y as reference
Method: Chemical trapping experiments: Quantum yields of singlet oxygen produced by 1a-c was evaluated by monitoring the UV/Visible absorption change in an Agilent 8453 Diode-Array spectrophotometer of 3,3'-anthracene-9,10-diyldipropanoic acid (ADPA) which is a well-known singlet oxygen trap. […] A solution of 1a-c in deuterated water (A473nm = 0.06) was prepared and an aliquot of ADPA in deuterated water was added to reach A378nm = 0.74. The photoabsorption spectral change of ADPA solution with photosensitizers 1a-c was monitored following the decrease of the band at 382 nm. Plots of Ln(A/A0) vs. time (s) give linear graphs for which the slope is the experimental kinetic rate constant (k, s^-1) (Ao is the initial absorption intensity and A is the absorption intensity at the time t). From comparison of experimental rate constants between phenalenone derivatives 1a-c and two selected actinometers (Eosin Y and Riboflavin, see supporting information for results using Riboflavin) using optically-matched solutions, singlet oxygen quantum yields of the photosensitizers ΦΔ can be determined from the following equation: φΔ = (k)/(kref) × φΔ,ref [formula]

[4] = Singlet oxygen quantum yield by 1O2 phosphorescence at 1270 nm; format: physicochemical; details: phosphorescence method
Method: Singlet oxygen quantum yield measurements: Lifetime decays of singlet oxygen, O2(^1Δg), were acquired with a FluoTime 200 equipped with multichannel scaler Nanoharp 200. […] For the detection at 1270 nm a NIR PMT H10330A (Hamamatsu) was employed. The O2(^1Δg) quantum yields (ΦΔ) were determined by comparing the intensity at zero time of the 1270 nm signals to those of optically-matched solutions of SAPYR or Eosin Y as references.

[5] = UV/Visible and fluorescence spectroscopy, fluorescence lifetime (TCSPC); format: physicochemical; details: for ΦF (fluorescence quantum yield): 6-ethoxyphenalenone as actinometer; for ε: at the longest-wavelength absorption maximum; for λmax(em): excited at 400 nm
Method: UV/Visible and fluorescence spectroscopy: UV-Vis spectra were recorded on an Agilent 8453 Diode-Array spectrophotometer in the range of 250-700 nm. Emission spectra were measured in an ISS PC1 spectrofluorometer at room temperature. Fluorescence quantum yields were determined using equation (1) and 6-ethoxy-phenalenone in methanol as reference. ΦF,sample = ΦF,reference (Areference)/(Asample)(Isample)/(Ireference)(((ηsample)/(ηreference)))^2 [formula] ΦF is the fluorescence quantum yields. A: is the absorbance in the wavelength of excitation, I correspond to area of the emission spectra and η is the refractive index of the solvent. The excitation wavelength was 400 nm for all steady state fluorescence experiments.
Luminescence lifetime measurements were carried out using a PicoQuant FluoTime 200 fluorescence lifetime spectrometer with a multichannel scaler (PicoQuant's Timeharp 250) with the time correlated single photon counting (TCSPC) method. As excitation resource laser 405 nm was employed.

[6] = actinometer value of SAPYR, excitation at 355 nm, ref [27]; cited from earlier work
[7] = Photochemical stability under blue light monitored by 1H NMR; format: physicochemical; details: D2O, irradiation at 470 nm (3.5 mW.cm^-2) for 24h, under oxygen or Argon
Method: Photochemical stability: In an NMR tube, a solution of dyes 1a-c or SAPYR in D2O ([C] = 17.5 mmol/L) was irradiated at 470 nm (3.5 mW.cm^-2) under oxygen or Argon atmosphere (the gas was bublled solution was oxygenated or degassed by bubbling through the solution for 5 minutes and put under gas atmosphere). 1H NMR spectra were recorded after 24h irradiation time for each sample.

[8] = CIP76, S.a, dark (D), read-out: MBC
[9] = CIP76, S.a, dark (D), read-out: MIC
[10] = CIP76, light or radiation study, S.a, light (L), LED white light, total fluence 25 J/cm^2, read-out: MBC
[11] = CIP76, light or radiation study, S.a, light (L), LED white light, total fluence 25 J/cm^2, read-out: MIC
[12] = CIP76, light or radiation study, P.a, light (L), LED white light, total fluence 25 J/cm^2, read-out: MBC
[13] = CIP76, light or radiation study, P.a, light (L), LED white light, total fluence 25 J/cm^2, read-out: MIC
[14] = CIP76, P.a, dark (D), read-out: MBC
[15] = CIP76, P.a, dark (D), read-out: MIC
[16] = D2O (470 nm), Eosin Y as actinometer
[17] = D2O, SAPYR as actinometer, excitation at 355 nm
[18] = DMSO, SAPYR as actinometer, excitation at 355 nm
[19] = MeOH, SAPYR as actinometer, excitation at 355 nm
[20] = CIP76, light or radiation study

Row | SMILES | MBC [1, 8] [µM] | MIC [1, 9] [µM] | MBC [1, 10] [µM] | MIC [1, 11] [µM] | MBC [2, 12] [µM] | MIC [2, 13] [µM] | MBC [2, 14] [µM] | MIC [2, 15] [µM] | ΦΔ [3] | ΦΔ [4, 16] | ΦΔ [4, 17] | ΦΔ [4, 18] | ΦΔ [4, 19] | TF (singlet lifetime) ([5]; DMSO) [ns] | Δλ (Stokes shift) ([5]; DMSO) [nm] | λabs ([5]; DMSO) [nm] | ΦF (fluorescence quantum yield) ([5]; DMSO) | ε ([5]; DMSO) [M⁻¹ cm⁻¹] | λmax(em) ([5]; DMSO) [nm] | TF (singlet lifetime) ([5]; H2O) [ns] | also measured
1 | COc1ccc2c3c(cc(CN(CCO)CCO)c(-c4ccccc4)c13)C(=O)C=C2.Cl [1c, 8-((bis(2-hydroxyethyl)amino)methyl)-6-methoxy-7-phenyl-1H-phenalen-1-one chloride] | > 200 | > 200 | 41.7 | 41.7 | 41.7 | 33 | > 200 | > 200 | 0.08 | 0.09 | 0.06 | 0.91 | 0.15 | 5.38 | 92 | 441 | 0.071 | 11984 | 533 | 7.39 | Δλ (Stokes shift) ([5]; H2O): 92 nm; λabs ([5]; H2O): 459 nm; ΦF (fluorescence quantum yield) ([5]; H2O): 0.217; ε ([5]; H2O): 10053 M⁻¹ cm⁻¹; λmax(em) ([5]; H2O): 551 nm; TF (singlet lifetime) ([5]; MeOH): 8.24 ns; Δλ (Stokes shift) ([5]; MeOH): 96 nm; λabs ([5]; MeOH): 446 nm; ΦF (fluorescence quantum yield) ([5]; MeOH): 0.233; ε ([5]; MeOH): 12256 M⁻¹ cm⁻¹; λmax(em) ([5]; MeOH): 542 nm
2 | COc1ccc2c3c(cc(C[N+](C)(C)Cc4ccccc4)c(-c4ccccc4)c13)C(=O)C=C2.[Cl-] [1a, N-benzyl-1-(6-methoxy-1-oxo-7-phenyl-1H-phenalen-8-yl)-N,N-dimethylmethanaminium chloride] | > 200 | 167 | 133 | 50 | > 200 | > 200 | > 200 | > 200 | 0.09 | 0.12 | 0.06 | 0.79 | 0.10 | 6.04 | 92 | 441 | 0.069 | 11426 | 533 | 7.65 | Δλ (Stokes shift) ([5]; H2O): 90 nm; λabs ([5]; H2O): 459 nm; ΦF (fluorescence quantum yield) ([5]; H2O): 0.241; ε ([5]; H2O): 9239 M⁻¹ cm⁻¹; λmax(em) ([5]; H2O): 549 nm; TF (singlet lifetime) ([5]; MeOH): 8.15 ns; Δλ (Stokes shift) ([5]; MeOH): 95 nm; λabs ([5]; MeOH): 447 nm; ΦF (fluorescence quantum yield) ([5]; MeOH): 0.221; ε ([5]; MeOH): 9363 M⁻¹ cm⁻¹; λmax(em) ([5]; MeOH): 542 nm
3 | O=C1C(C[n+]2ccccc2)=Cc2cccc3cccc1c23 [SAPYR, reference compound] |  |  |  |  |  |  |  |  |  |  |  |  |  |  |  |  |  |  |  |  | ΦΔ [6]: 1.02; MBC [1, 20]: 167 µM; MIC [1, 20]: 83.3 µM; MBC [2, 20]: > 200 µM; MIC [2, 20]: > 200 µM; photodynamic effects ([2]; illumination under white light): did not exhibit any photodynamic effects; photochemical stability [7]: complete decomposition
4 | COc1ccc2c3c(cc(C[n+]4ccccc4)c(-c4ccccc4)c13)C(=O)C=C2.[Cl-] [1b, 1-((6-methoxy-1-oxo-7-phenyl-1H-phenalen-8-yl)methyl)pyridin-1-ium chloride] | > 200 | > 200 | 67 | 50 | > 200 | > 200 | > 200 | > 200 | 0.15 | 0.11 | 0.06 | 0.63 | 0.12 | 6.24 | 91 | 444 | 0.067 | 10472 | 535 | 7.15 | Δλ (Stokes shift) ([5]; H2O): 88 nm; λabs ([5]; H2O): 463 nm; ΦF (fluorescence quantum yield) ([5]; H2O): 0.192; ε ([5]; H2O): 9259 M⁻¹ cm⁻¹; λmax(em) ([5]; H2O): 551 nm; TF (singlet lifetime) ([5]; MeOH): 7.65 ns; Δλ (Stokes shift) ([5]; MeOH): 95 nm; λabs ([5]; MeOH): 447 nm; ΦF (fluorescence quantum yield) ([5]; MeOH): 0.209; ε ([5]; MeOH): 9344 M⁻¹ cm⁻¹; λmax(em) ([5]; MeOH): 542 nm
